Laboratory results: patent US8242102B2, “Quinoline compounds suitable for treating disorders that respond to modulation of the serotonin 5-HT6 receptor” (Abbott GmbH & Co. KG, priority 2007, dated 2012)
Structures can show the parent of a compound that is named as a salt.

Each compound was assayed against T1, dopamine D2 receptor (Homo sapiens, UniProt P14416) (assay: Dopamine D2 receptor binding assay, displacement of [125I]-iodospiperone). Details: saturation binding, HEK293 dopamine D2 membranes; read-out: KD of radioligand.
T1 construct: expressed in transfected cells; host or cells: HEK293
Protocol: (§1) 1. Preparation of Membranes by Ultrasonic Treatment and Differential Centrifugation
The pellets were stored at −80° C. until use. […] (Beckman Ultrazentrifuge XL 80).
(§2) 2. Receptor Binding Experiments
a) Dopamine D2 Receptor Binding Assay
Non-specific binding was defined with 1 μM haloperidol.

T1 sequence (P14416 whole entry): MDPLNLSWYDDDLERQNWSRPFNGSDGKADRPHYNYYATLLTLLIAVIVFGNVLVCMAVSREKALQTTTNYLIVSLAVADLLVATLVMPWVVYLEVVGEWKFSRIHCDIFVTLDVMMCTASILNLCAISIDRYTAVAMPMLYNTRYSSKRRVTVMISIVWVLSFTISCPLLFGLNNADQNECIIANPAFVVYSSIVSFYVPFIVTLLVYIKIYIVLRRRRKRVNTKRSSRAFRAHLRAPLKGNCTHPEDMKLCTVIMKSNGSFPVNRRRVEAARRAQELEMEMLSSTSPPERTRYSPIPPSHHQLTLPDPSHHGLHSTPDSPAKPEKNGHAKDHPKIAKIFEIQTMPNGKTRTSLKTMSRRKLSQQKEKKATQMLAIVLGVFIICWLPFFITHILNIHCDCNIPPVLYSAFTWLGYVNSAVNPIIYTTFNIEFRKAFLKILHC

iodospiperone [[^125I]-iodospiperone] showed a Kd of 0.00022 µM.

What follows are compounds tested against T2, h-5-HT6 receptor (Homo sapiens, UniProt P50406) (assay: 5-HT6 receptor binding assay, displacement of [3H]-LSD). Details: membranes of HEK293 cells expressing h-5-HT6, 1 nM [3H]-LSD.
T2 construct: expressed in transfected cells; host or cells: HEK293
Protocol: Displacement of Radioligands Binding to the Following Cloned Human Receptors
as §1
Cells from stable clonal cell lines expressing the corresponding receptor (5-HT6, 1-adrenergic, dopamine D2 or histamine H1 receptors) were washed with PBS (w/o Ca^++, Mg^++) and harvested in PBS with 0.02% EDTA. The cells were collected by centrifugation at 500 g for 10 min. at 4° C., washed with PBS and centrifuged (500 g, 10 min. 4° C.). The pellets were stored at −80° C. until use. For membrane preparation, the thawed cell pellet was resuspended in ice-cold sucrose buffer (0.25 M sucrose, 10 mM Hepes (pH 7.4), 1 mM Phenylmethylsulfonyl fluoride (PMSF) in DMSO, […] Pepstatin-A, 3 mM EDTA, 0.025% Bacitracin) and homogenized with a Branson Sonifier W-250 (Settings: Timer 4; Output Control 3; Duty Cycle constant; 2 to 3 cycles). Cell disruption was checked with the aid of a microscope. Remaining unbroken cells were pelleted at 1,000 g for 10 min. at 4° C. The sucrose buffer supernatant was then centrifuged at 60,000 g for 1 h at 4° C. (Beckman Ultrazentrifuge XL 80). The pellet was resuspended in 30 ml ice-cold Tris buffer (20 mM TRIS (pH 7.4), […] Pepstatin A, 0.1 mM PMSF, 3 mM EDTA) by pipetting through a 10 ml serological pipet and centrifuged for 1 h at 4° C. at 60,000 g. A final resuspension was performed in a small volume of ice-cold Tris buffer (see above) by pressing through a serological pipet followed by ultrasonic treatment with a Branson Sonifier W-250 (Settings: Timer 1; Output Control 3; Duty Cycle constant; 1 cycle). Protein concentration was determined (BCA-Kit; Pierce) and aliquots stored at −80° C. or in liquid nitrogen for long-term storage.
as §2
All receptor binding experiments were carried out in the corresponding assay buffer in a total volume of 200 μl in the presence of various concentrations of test compound (10^−5 M to 10^−9 M, tenfold serial dilution, duplicate determinations). The assays were terminated by filtration on polyethylenimine (PEI 0.1% or 0.3%) presoaked Packard Unifilter Plates (GF/C or GF/B) with a Tomtec MachIII U 96 well-plate harvester. After the plates had been dried for 2 h at 55° C. in a drying chamber scintillation cocktail (BetaPlate Scint; PerkinElmer) was added. Radioactivity was measured in a Microbeta Trilux two hours after the addition of the scintillation mixture. Data derived from liquid scintillation counting were analysed by iterative non-linear regression analysis with the use of the Statistical Analysis System (SAS): a program similar to “LIGAND” as described by Munson and Rodbard (Analytical Biochemistry 107, 220-239 (1980).
a) 5-HT6 Receptor Binding Assay
HEK293 cells stably expressing the h-5-HT6 receptor (NCBI Reference Sequence XM 001435) were cultured in RPMI1640 medium supplemented with 25 mM HEPES, 10% fetal calf serum and 1-2 mM glutamine. The membrane preparation was performed as described in section 1. […] Non-specific binding was defined with 1 μM methiothepin. The binding reaction was carried out for 3.5 h at room temperature. During the incubation, the plates were shaken on a plate shaker at 100 rpm and terminated by filtration on Packard Unifilter GF/C (0.1% PEI) plates, followed by 2 wash cycles with ice-cold 50 mM Tris-HCl, 5 mM CaCl2.
Data derived from liquid scintillation counting were analyzed by iterative non-linear regression analysis with the use of the Statistical Analysis System (SAS): a program similar to “LIGAND” as described by Munson and Rodbard (Anal. Biochem. 1980, 107, 220-239). Fitting was performed according to formulae described by Feldman (Anal. Biochem. 1972, 48, 317-338). IC50, nH and Ki values were expressed as geometrical mean.

T2 sequence (P50406 whole entry): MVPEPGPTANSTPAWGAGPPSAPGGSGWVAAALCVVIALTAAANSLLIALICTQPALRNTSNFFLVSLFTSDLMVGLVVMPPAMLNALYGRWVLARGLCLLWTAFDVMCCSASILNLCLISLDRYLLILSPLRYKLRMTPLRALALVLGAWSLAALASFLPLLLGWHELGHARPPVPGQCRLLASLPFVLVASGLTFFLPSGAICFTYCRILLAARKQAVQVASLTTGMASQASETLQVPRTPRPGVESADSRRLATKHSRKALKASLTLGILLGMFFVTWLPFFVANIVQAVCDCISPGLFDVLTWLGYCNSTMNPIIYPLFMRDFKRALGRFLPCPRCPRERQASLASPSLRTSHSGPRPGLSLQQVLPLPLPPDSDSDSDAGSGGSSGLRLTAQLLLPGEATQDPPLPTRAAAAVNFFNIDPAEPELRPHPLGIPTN

`O=S(=O)(c1ccccc1)c1cnc2c(C3CNC3)cccc2c1` [Example 1, 8-(Azetidin-3-yl)-3-(phenylsulfonyl)quinoline hydrochloride] and `O=S(=O)(c1ccccc1)c1cnc2c(C3CCNCC3)cccc2c1` [Example 2, 3-(Phenylsulfonyl)-8-(piperidin-4-yl)quinoline hydrochloride] cannot be ordered by Ki: under 0.1 µM for the first, under 0.1 µM for the second.

Compared with `O=S(=O)(c1ccccc1)c1cnc2c(C3CCN(Cc4ccccc4)C3)cccc2c1` (centres unmarked) [Example 3, 8-(1-Benzylpyrrolidin-3-yl)-3-(phenylsulfonyl)quinoline], `O=S(=O)(c1ccc(F)cc1)c1cnc2c(C3CCNCC3)cccc2c1` [Example 5, 3-(4-Fluorophenylsulfonyl)-8-(piperidin-4-yl)quinoline] is lower in Ki: over 1 µM for the first, under 0.1 µM for the second.

`O=S(=O)(c1cccc(C(F)(F)F)c1)c1cnc2c(C3CCNCC3)cccc2c1` [Example 4, 8-(Piperidin-4-yl)-3-(3-(trifluoromethyl)phenylsulfonyl)quinoline] and `O=S(=O)(c1cccc(Br)c1)c1cnc2c(C3CCNCC3)cccc2c1` [Example 6, 3-(3-Bromophenylsulfonyl)-8-(piperidin-4-yl)quinoline] cannot be ordered by Ki: under 0.1 µM for the first, under 0.1 µM for the second.

`O=S(=O)(c1cccc(N2CCCC2)c1)c1cnc2c(C3CCNCC3)cccc2c1` [Example 7, 8-(Piperidin-4-yl)-3-(3-(pyrrolidin-1-yl)phenylsulfonyl)quinoline] was tested, and the Ki was under 0.1 µM.
